The results in this text go back to ChEMBL document CHEMBL1201862, “PubChem BioAssay data set” (2004).

Structures are written as SMILES.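 Dose response: 5 concentrations. Exposure: 48 h. Format: 96-well plates. Endpoint: linear interpolation; highest concentration if not reached. GI50: concentration for 50% inhibition of growth.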 The source made the active and inactive calls. No stated cut-off is given here; in the data, active = GI50 up to about 1.1 µM and inactive = higher. Square brackets hold non-standard residues; d marks the D form. Peptide text beside a SMILES is read from it. * marks the point of attachment. X26 = COC1=CC(=O)N(C(=O)[C@@H](O*)C(C)C)[C@H]1Cc1ccccc1; Bn2Val = CC(C)[C@@H](C(=O)*)N(Cc1ccccc1)Cc1ccccc1; NMeV = CN[C@H](C(=O)O)C(C)C; dNMeA = CN[C@H](C)C(=O)O Some results are limits rather than exact numbers.

Some test systems named below: DU-145; MDA-N; SF-539; UO-31; Hs-578T; COLO 205; KM12; 786-0; RPMI-8226; HCT-116; IGROV-1; OVCAR-5; NCI/ADR-RES; OVCAR-3; HOP-62; MDA-MB-435; SNB-19; RXF 393.
Common to all, as to assay: growth of human tumour cells (NCI), 48 h

For `CN(C)C(=O)Oc1ccc(C(=S)Nc2ccccc2)cc1`, the GI50 with DU-145 was > 100 µM (inactive); in the experiment with MDA-N it was 37.4 µM (inactive); in the experiment on SF-539 it was > 100 µM (inactive); with UO-31, 75.3 µM (inactive); in the experiment on Hs-578T it was > 100 µM (inactive); with COLO 205, 65.2 µM (inactive). In addition, the GI50 was 49.7 µM (inactive) in the experiment on KM12; > 100 µM (inactive) with 786-0; 64.1 µM (inactive) in the experiment on RPMI-8226; > 100 µM (inactive) in the experiment with HCT-116; 34 µM (inactive) with IGROV-1; > 100 µM (inactive) in the experiment on OVCAR-5. Also, the GI50 in the experiment on NCI/ADR-RES is 26.4 µM (inactive); with OVCAR-3 it was 86.5 µM (inactive); in the experiment with HOP-62, > 100 µM (inactive); in the experiment with MDA-MB-435, 42.3 µM (inactive); with SNB-19 it was > 100 µM (inactive).

With `CCOC(=O)c1ccc(/N=C2\Sc3nc4ccccc4n3\C2=N\c2ccc(C(=O)OCC)cc2)cc1`, the GI50 with DU-145 was 28.9 µM (inactive); with MDA-N it was 18.5 µM (inactive); in the experiment on RXF 393, 28.8 µM (inactive); with SF-539 it was 21 µM (inactive); in the experiment with Hs-578T, 22.6 µM (inactive); in the experiment with COLO 205, 38.5 µM (inactive). Also, the GI50 in the experiment with KM12 is 20.1 µM (inactive); in the experiment with 786-0 it was 11.8 µM (inactive); with HCT-116, 6.58 µM (inactive); with IGROV-1, 19.5 µM (inactive); with OVCAR-5, 60 µM (inactive); in the experiment on NCI/ADR-RES it was 22.1 µM (inactive). The GI50 with OVCAR-3 is 12.9 µM (inactive); in the experiment on HOP-62, 21.5 µM (inactive); in the experiment with MDA-MB-435, 59.2 µM (inactive); with SNB-19, 12.1 µM (inactive).

`Cc1ccc([N+](=O)[O-])cc1NC(=O)C(=O)C1CCC2=C(Sc3ccccc3N2)C1=O` (configuration not stated): the GI50 in the experiment with DU-145 is > 100 µM (inactive); in the experiment with MDA-N, > 100 µM (inactive); in the experiment with RXF 393 it was > 100 µM (inactive); with SF-539 it was 37.5 µM (inactive); in the experiment on UO-31, 60 µM (inactive); in the experiment with Hs-578T it was > 100 µM (inactive). In addition, the GI50 in the experiment with COLO 205 is > 100 µM (inactive); with KM12 it was > 100 µM (inactive); with 786-0 it was > 100 µM (inactive); in the experiment on HCT-116 it was 68.2 µM (inactive); with IGROV-1, > 100 µM (inactive); in the experiment on OVCAR-5, > 100 µM (inactive). Further, the GI50 in the experiment on NCI/ADR-RES is > 100 µM (inactive); with OVCAR-3 it was 23 µM (inactive); in the experiment with HOP-62 it was > 100 µM (inactive); in the experiment on MDA-MB-435, > 100 µM (inactive); in the experiment on SNB-19 it was > 100 µM (inactive).

Regarding `Nc1nc(NCCCO)cc(=O)[nH]1`, the GI50 with DU-145, with MDA-N, with RXF 393, in the experiment on UO-31, in the experiment on Hs-578T and with COLO 205 was > 100 µM (inactive) throughout. Also, the GI50 in the experiment with KM12, in the experiment with 786-0, in the experiment on RPMI-8226, with HCT-116, with IGROV-1 and in the experiment with OVCAR-5 was > 100 µM (inactive) throughout. The GI50 in the experiment on NCI/ADR-RES, with OVCAR-3, in the experiment on HOP-62, with MDA-MB-435 and in the experiment on SNB-19 was > 100 µM (inactive) each time.

As for `CC(C)(C)n1c(=O)n2n(c1=O)C1c3cccc4cccc(c34)C2C2c3cccc4cccc(c34)C1n1c(=O)n(C(C)(C)C)c(=O)n12`, the GI50 in the experiment with DU-145 was 80.2 µM (inactive); in the experiment on MDA-N, > 100 µM (inactive); with SF-539 it was 41.4 µM (inactive); in the experiment with UO-31, > 100 µM (inactive); in the experiment with Hs-578T it was 64.3 µM (inactive); with COLO 205, > 100 µM (inactive). For the same molecule, the GI50 with KM12 is > 100 µM (inactive); with 786-0, > 100 µM (inactive); in the experiment with RPMI-8226 it was 55.8 µM (inactive); in the experiment with HCT-116, 61.9 µM (inactive); in the experiment with IGROV-1 it was 21.7 µM (inactive); with OVCAR-5 it was > 100 µM (inactive). Besides, the GI50 with NCI/ADR-RES is > 100 µM (inactive); with OVCAR-3, 16.3 µM (inactive); in the experiment with HOP-62 it was 67.3 µM (inactive); in the experiment on MDA-MB-435 it was > 100 µM (inactive); in the experiment on SNB-19, > 100 µM (inactive).

As to `COP1(=O)OCc2cnccc2O1` (configuration not stated), the GI50 in the experiment with MDA-N, in the experiment with SF-539, with UO-31, in the experiment with Hs-578T, with COLO 205 and in the experiment on KM12 was > 100 µM (inactive) throughout. Further, the GI50 with 786-0, with RPMI-8226, with HCT-116, in the experiment on IGROV-1, in the experiment on OVCAR-5 and with NCI/ADR-RES was > 100 µM (inactive) throughout. For the same molecule, the GI50 with OVCAR-3, with HOP-62, in the experiment on MDA-MB-435 and with SNB-19 was > 100 µM (inactive) throughout.

For `Cc1c2c(n(Cc3ccccn3)c1C)NN=C(C#N)S2(=O)=O`, the GI50 in the experiment on DU-145, in the experiment on MDA-N, in the experiment with SF-539, with UO-31, in the experiment with Hs-578T and in the experiment on COLO 205 was > 100 µM (inactive) throughout. Further, the GI50 in the experiment on KM12, with 786-0, with HCT-116, in the experiment with IGROV-1, in the experiment with OVCAR-5 and in the experiment with NCI/ADR-RES was > 100 µM (inactive) each time. The GI50 in the experiment with OVCAR-3, in the experiment on HOP-62, in the experiment with MDA-MB-435 and with SNB-19 was > 100 µM (inactive) in each case.

`C[C@]12CC(c3ccccc3O1)C(C#N)C(=O)N2` (some centres not stated): the GI50 in the experiment on DU-145, in the experiment on MDA-N, with RXF 393, in the experiment with Hs-578T, in the experiment on COLO 205 and in the experiment with KM12 was > 100 µM (inactive) each time. The GI50 in the experiment on 786-0, in the experiment on RPMI-8226, with HCT-116, in the experiment on IGROV-1, in the experiment with OVCAR-5 and in the experiment with NCI/ADR-RES was > 100 µM (inactive) each time. In addition, the GI50 with OVCAR-3, in the experiment with HOP-62, with MDA-MB-435 and with SNB-19 was > 100 µM (inactive) throughout.

For `O=c1[nH]c2c(C(F)(F)F)c(Cl)c(-c3ccccc3)nc2o1`, the GI50 in the experiment with DU-145 was 38.1 µM (inactive); in the experiment on MDA-N, 14.8 µM (inactive); in the experiment on RXF 393, 21.5 µM (inactive); in the experiment with UO-31, 12.5 µM (inactive); in the experiment with Hs-578T, 55.6 µM (inactive); in the experiment on COLO 205 it was 14.9 µM (inactive). The GI50 in the experiment on KM12 was 26.7 µM (inactive); with 786-0 it was 24.4 µM (inactive); with HCT-116 it was 16.1 µM (inactive); with IGROV-1 it was 41.8 µM (inactive); in the experiment on OVCAR-5, 11.8 µM (inactive); in the experiment with NCI/ADR-RES it was 16.6 µM (inactive). For the same molecule, the GI50 with OVCAR-3 is 17.3 µM (inactive); with HOP-62, 35.4 µM (inactive); with MDA-MB-435, 28.3 µM (inactive); in the experiment on SNB-19, 25.5 µM (inactive).

Take `CCCCC/C=C\C=C\CCCCCCCCC(=O)OC`: the GI50 in the experiment with DU-145 is > 100 µM (inactive); in the experiment with MDA-N it was > 100 µM (inactive); in the experiment on RXF 393, > 100 µM (inactive); in the experiment on SF-539, > 100 µM (inactive); in the experiment on UO-31, 13.9 µM (inactive); in the experiment on Hs-578T it was > 100 µM (inactive). For the same molecule, the GI50 in the experiment with COLO 205, in the experiment on KM12, in the experiment on 786-0, in the experiment on RPMI-8226, in the experiment on HCT-116 and in the experiment on IGROV-1 was > 100 µM (inactive) each time. Besides, the GI50 in the experiment with OVCAR-5, with NCI/ADR-RES, in the experiment with OVCAR-3, with HOP-62 and in the experiment with SNB-19 was > 100 µM (inactive) each time.

`Cc1cc(-c2nc3ccccc3s2)ccc1NS(=O)(=O)O`: the GI50 in the experiment on DU-145 is > 22.2 µM (inactive); in the experiment with MDA-N, > 6.04 µM (inactive); in the experiment on SF-539, 0.0508 µM (active); with UO-31, > 7.82 µM (inactive); with Hs-578T, > 6.28 µM (inactive); in the experiment with COLO 205 it was > 4.65 µM (inactive). In addition, the GI50 in the experiment with KM12 is > 4.65 µM (inactive); in the experiment on 786-0, > 8.85 µM (inactive); in the experiment on RPMI-8226, > 4.65 µM (inactive); with HCT-116, > 4.65 µM (inactive); in the experiment with IGROV-1 it was 1.11 µM (active); with OVCAR-5 it was > 4.65 µM (inactive). The GI50 in the experiment on NCI/ADR-RES was > 7.1 µM (inactive); in the experiment on MDA-MB-435, > 7.08 µM (inactive); with SNB-19, > 24.4 µM (inactive).

On to `COC1=CC(=O)N(C(=O)[C@@H](OC(=O)[C@@H](C)N(C)C(=O)[C@@H]2CCCN2C(=O)[C@H](C(C)C)N(C)C(=O)[C@@H](NC(=O)[C@H](C(C)C)N(Cc2ccccc2)Cc2ccccc2)C(C)C)C(C)C)[C@H]1Cc1ccccc1` (Bn2Val-V[NMeV]P[dNMeA]-X26), for which the GI50 in the experiment with DU-145 is > 100 µM (inactive); in the experiment on MDA-N, > 100 µM (inactive); in the experiment with RXF 393, > 26.2 µM (inactive); in the experiment with SF-539 it was > 37.2 µM (inactive); with UO-31 it was 6.44 µM (inactive); with Hs-578T it was > 100 µM (inactive). Moreover, the GI50 is > 100 µM (inactive) in the experiment with COLO 205; > 31.3 µM (inactive) in the experiment on KM12; 98.2 µM (inactive) with 786-0; 4.32 µM (inactive) in the experiment with HCT-116; > 100 µM (inactive) in the experiment on IGROV-1; > 100 µM (inactive) with OVCAR-5. Besides, the GI50 in the experiment with NCI/ADR-RES was > 100 µM (inactive); with OVCAR-3 it was > 100 µM (inactive); in the experiment on HOP-62, > 57.3 µM (inactive); in the experiment on MDA-MB-435, > 100 µM (inactive); in the experiment with SNB-19, > 90.2 µM (inactive).
